Experimental data: patent US20090317497A1, “Compositions and methods for promoting brain and cardiovascular health, preventing and treating brain and cardiovascular disorders” (priority 2007, published 2009)

Legend:
[1] = test system: spontaneous hypertension rats (SHR) with stroke induced middle cerebral artery occlusion (MCAO); experiment: Chronic MCAO stroke study, SHR (Example 7); type: in vivo; conditions: Braintone (500), Ginkgo 20, Aspirin 10, Losartan 1 mg/kg/day, means +/- SD, scale 0 to 5
[2] = test system: Wistar rats with stroke induced middle cerebral artery occlusion (MCAO); experiment: Chronic MCAO stroke study, Wistar (Example 7); type: in vivo; conditions: Braintone 500 mg/kg, Ginkgo 20, Aspirin 10, Losartan 1 mg/kg/day, means +/- SD, scale 0 to 5
Procedure: (§1) 96 Wistar rats and 96 SHR, weighing 250-300 g, were randomly divided into eight treatment groups respectively (see Table 14), Remembrance (Formulation A) and other comparative drugs were dissolved in distilled water and administrated orally once daily for two months (Table 14: dosage of administration).
Oral administration of Remembrance/other treatments (2 months)→MACO→Continue the corresponding treatment after MACO (1 month)→Measurements
The differentiation of […] capillaries and evaluation of morphological changes after cerebral ischemia were performed using Hematoxylin and Eosin Staining. Random slides of the rat brains were used for the staining.

[3] = test system: apoptosis-induced nuclear DNA fragmentation in cerebral cortex; experiment: Apoptosis assay, TUNEL staining, Wistar (Example 7); type: in vivo, Wistar rats; conditions: after 1 month of MCAO, doses of Table 14
Excerpt: TUNEL staining was used for detection of apoptosis-induced nuclear DNA fragmentation via fluorescence microscopy.
Apoptotic cells were identified by using TUNEL staining.

[4] = test system: apoptosis-induced nuclear DNA fragmentation in cerebral cortex; experiment: Apoptosis assay, TUNEL staining, SHR (Example 7); type: in vivo; conditions: doses of Table 14
Excerpt: TUNEL staining was used for detection of apoptosis-induced nuclear DNA fragmentation via fluorescence microscopy. Apoptotic cells were identified by using TUNEL staining.

[5] = test system: oxidized DNA base products; experiment: DNA damage, oxidized DNA base products by GC/MS, Wistar (Example 7); type: in vivo, Wistar rats; conditions: stroke-induced, Aspirin 10, Losartan 1 mg/kg/day
BcL-xL [6] = experiment: Gene expression Bcl-xL, Wistar (Example 7); type: in vivo, Wistar rats; conditions: Losartan 1 mg/kg/day, compared with vehicle group (p<0.01)
Procedure: as §1
(§2) Glyceraldehydes-3-[…] dehydrogenase (GAPDH) was used as the internal standard gene. Primers sequences of GAPDH, VEGF, eNOS, ACE, AT1, AT2, Fas, Bax, Bcl-xL and Bcl-xS were used in this study.

Fas = experiment: RT-PCR gene expression in left cortex after MCAO: Fas (Example 6); type: in vivo, Wistar rats; conditions: stroke-operated group, doses of Table 12; compared with stroke operated vehicle group
Excerpt: (§3) The brains were collected for further gene expression studies. The cerebral left cortexes containing infarct area were separated.

AT2 receptor = experiment: RT-PCR gene expression in left cortex after MCAO: AT2 (Example 6); type: in vivo, Wistar rats; conditions: stroke operated groups, doses of Table 12; compared with stroke operated vehicle group (p<0.05)
Excerpt: as §3

Bcl-xS [7] = experiment: Gene expression Bcl-xS, SHR (Example 7); type: in vivo; conditions: doses of Table 14, vs Vehicle group
Procedure: as §1, §2

Wistar Rats with MCAO = experiment: 2-week MCAO stroke study, Wistar (Example 4); type: in vivo
Procedure: (§4) Wistar and SHR rats were randomly divided into four treatment groups and one sham group (see Table 7 and 8).
(§5) The morphological changes were evaluated after cerebral ischemia. The brains were dipped in M-1 Embedding Matrix for frozen sectioning, frozen in liquid nitrogen and stored at −80 deg C. The cerebral sections were then cut from the middle part of the frozen brain at 20 um. 4 to 6 sections were obtained from each brain for HE staining. HE staining of sections was performed to differentiate capillaries, after which they were covered with crystal mount. Cerebral sections were examined under the microscope and photographed.

BcL-xL [8] = experiment: RT-PCR gene expression in left cortex after MCAO: BcL-xL (Example 6); type: in vivo, Wistar rats; conditions: stroke operated, doses of Table 12
Excerpt: as §3

[9] = test system: Spontaneous Hypertensive Rats (SHR) with MCAO; experiment: 2-week MCAO stroke study, SHR (Example 4); type: in vivo
Procedure: as §4, §5

[10] = test system: oxidized DNA base products; experiment: Evaluation of DNA damage in blood DNA by GC/MS (Example 5); type: in vivo, Wistar rats and SHR; conditions: Stroke + treatment, doses of Table 9; mean ± S.D.; unit not given in Table 11 (Table 10: nmol/mg DNA)
Procedure: 60 Wistar rats and 60 SHR were divided into six treatment groups separately (excluding the vehicle group). The single blinded experiment was conducted with Formulation B and other drugs being administrated once daily orally (see Table 9). After a week treatment, Wistar rats underwent a MCAO procedure to induce stroke. Treatment was continued for another week after surgery before the rats were sacrificed by decapitation. DNA extraction and DNA base damage analysis was then performed. DNA was extracted from blood samples collected from different treatment groups of Wistar rats and SHR using the phenol-chloroform method. The DNA samples were then analyzed by GC/MS.

BcL-xS [11] = experiment: RT-PCR gene expression in left cortex after MCAO: BcL-xS (Example 6); type: in vivo, Wistar rats; conditions: stroke operated, doses of Table 12; compared with stroke operated vehicle group (p<0.05)
Excerpt: as §3

Bax = experiment: RT-PCR gene expression in left cortex after MCAO: Bax (Example 6); type: in vivo, Wistar rats; conditions: stroke-operated group, doses of Table 12; compared with stroke operated vehicle group (p<0.05)
Excerpt: as §3

[12] = Inhibition of Pyrogallol Red Bleaching by Hypochlorous Acid; type: biochemical; conditions: 10 mg/ml; 125 uM HOCL; pH 7.4, 37 deg. C.; 542 nm
Procedure: Pyrogallol Red was dissolved in 100 mM buffer at 37 deg. C., pH 7.4, after which 125 uM HOCL was added and incubated with 10 mg/ml ascorbic acid and other select herbal extracts including two batches of Formulation B. The absorbance values of the mixtures in the presence and absence of the antioxidant were recorded by UV visible spectrophotometer at 542 nm.

Inhibition of ABTS Assay = type: biochemical; conditions: 10 ul of 10 mg/ml in 990 ul ABTS reagent; 2 minutes; 734 nm
Procedure: 10 ul of 10 mg/ml of select herbal extracts and two batches of Formulation B were mixed with 990 ul of ABTS reagent and incubated for 2 minutes before the absorbance was measured by UV visible spectrophotometer at 734 nm.

[13] = MCAO, Formulation B 500 mg/kg/day, Losartan 1 mg/kg/day
[14] = MCAO, Formulation B 500 mg/kg/day, Losartan 1 mg/kg/day, day 13

Row | SMILES | amount of DNA damage compared to Remembrance 500 mg group [5] | Fas expression (Fas) | AT2 expression (AT2 receptor) | BcL-xL up or down regulation (BcL-xL [8]) | 2OH Adenine [10] | 5(OH, Me) Uracil [10] | 5CI Uracil [10] | 5Formyl Uracil [10] | 5OH Cytosine [10] | 5OH Uracil [10] | 5OH, Me Hydantoin [10] | 8OH Adenine [10] | 8OH Guanine [10] | FAPy Adenine [10] | FAPy Guanine [10] | Hypoxanthine [10] | Thymine Glycol (cis) [10] | Xanthine [10] | BcL-xS expression (BcL-xS [11]) | Bax gene expression (Bax) | further results
1 | CC(=O)Oc1ccccc1C(=O)O [Aspirin] | higher amount of DNA damage | – | – | – | – | – | – | – | – | – | – | – | – | – | – | – | – | – | – | – | Neurological score, 1 day after stroke [1]: 1.72 ± 1.73; Neurological score, 1 day before decapitation [1]: 1.54 ± 2.15; Neurological score, 15 days after stroke [1]: 0.63 ± 1.84; Neurological score, 1 day after stroke [2]: 1 ± 1.73; Neurological score, 1 day before decapitation [2]: 2 ± 2.74; Neurological score, 15 days after stroke [2]: 2 ± 2.45; apoptosis (TUNEL staining) in cerebral cortex [3]: reduction in apoptosis; apoptosis (TUNEL staining) in cerebral cortex [4]: reduction in apoptosis
2 | CCCCc1nc(Cl)c(CO)n1Cc1ccc(-c2ccccc2-c2nn[nH]n2)cc1 [Losartan] | higher amount of DNA damage | no significant effect | significantly reduced | did not have any significant effects | 0.02 ± 0.03 | 0.04 ± 0.03 | 0.02 ± 0.01 | 0.01 ± 0.01 | 0.01 ± 0.01 | 0.01 ± 0.01 | 0.10 ± 0.02 | 0.05 ± 0.04 | 0.13 ± 0.04 | 0.09 ± 0.03 | 0.03 ± 0.03 | 22.21 ± 8.01 | 2.20 ± 0.15 | 1.51 ± 0.32 | significantly reduced expression | significant effect in down regulating | Bcl-xL expression (BcL-xL [6]): significant fold decrease; Bcl-xS expression (Bcl-xS [7]): up-regulating effects; infarct volume (Wistar Rats with MCAO; [13]): 2.41%; mortality rate (Wistar Rats with MCAO; [14]): 0%; number of capillaries, HE staining (Wistar Rats with MCAO; after MCAO): 22 capillaries; infarct volume [9, 13]: 5.22%; mortality rate [9, 14]: 28.6%; number of capillaries, HE staining ([9]; after MCAO): 15 capillaries
3 | CCOC(=O)[C@H](CCc1ccccc1)N[C@@H](C)C(=O)N1[C@H](C(=O)O)C[C@@H]2CCC[C@@H]21 [Ramipril] | – | no significant effect | significantly reduced | did not have any significant effects | 0.03 ± 0.02 | 0.03 ± 0.00 | 0.01 ± 0.00 | 0.50 ± 0.03 | 0.05 ± 0.01 | 0.06 ± 0.00 | 0.04 ± 0.02 | 0.03 ± 0.01 | 0.13 ± 0.07 | 0.08 ± 0.03 | 0.03 ± 0.01 | 18.12 ± 11.18 | 0.68 ± 0.31 | 2.61 ± 1.64 | significantly reduced expression | significant effect in down regulating | –
4 | O=C1O[C@H]([C@@H](O)CO)C(O)=C1O [ascorbic acid] | – | – | – | – | – | – | – | – | – | – | – | – | – | – | – | – | – | – | – | – | pyrogallol red bleaching inhibition [12]: ~100%; scavenging effect of ABTS (Inhibition of ABTS Assay): 100%
